For 6 molecules, Ki results are on record in US5550212A, “Analogues of hGH-RH(1-29)NH2 having antagonistic activity” (The Administrators of the Tulane Educational Fund, priority 1993, dated 1996).

Starred links: 1 amine or outer side, 2 acyl side, 3 side chain; linkers in the order of their positions; H or OH if unused. Non-standard residues stand in square brackets, D forms with d. Residues, ends and D or L forms follow the SMILES beside them. *: point of attachment. Acetyl(1-naphthyl) = O=C(Cc1cccc2ccccc12)*; Tpi = O=C(O)[C@@H]1Cc2c([nH]c3ccccc23)CN1; Phe(4-Cl) = N[C@@H](Cc1ccc(Cl)cc1)C(=O)O; Glutaryl = O=C(CCCC(=O)[*:2])[*:1]; Agmatine = N=C(N)NCCCCN*; Isobutyryl = CC(C)C(=O)*; Nle = CCCC[C@H](N)C(=O)O; Abu = CC[C@H](N)C(=O)O; Aib = CC(C)(N)C(=O)O; X2 = O=C(CI)*

This assay has as its target T1, rat pituitary GH-RH receptors (Rattus norvegicus, UniProt Q02644).
T1 construct: from tissue; host or cells: rat anterior pituitary (male Sprague-Dawley), crude membranes
T1 sequence (Q02644 23-464): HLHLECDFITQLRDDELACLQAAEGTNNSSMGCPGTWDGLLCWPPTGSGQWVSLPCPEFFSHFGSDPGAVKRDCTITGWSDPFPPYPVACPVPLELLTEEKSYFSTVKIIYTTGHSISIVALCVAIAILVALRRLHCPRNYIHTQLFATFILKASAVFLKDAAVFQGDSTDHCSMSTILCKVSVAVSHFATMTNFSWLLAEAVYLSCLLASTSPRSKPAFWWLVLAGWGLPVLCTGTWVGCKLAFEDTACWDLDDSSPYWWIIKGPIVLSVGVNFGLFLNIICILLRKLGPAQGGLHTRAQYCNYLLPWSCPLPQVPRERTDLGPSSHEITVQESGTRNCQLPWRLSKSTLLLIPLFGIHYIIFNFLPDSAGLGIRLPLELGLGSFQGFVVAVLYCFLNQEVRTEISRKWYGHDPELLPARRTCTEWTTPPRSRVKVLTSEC
As to the kind of experiment: GH-RH binding assay, competitive binding on rat anterior pituitary membrane homogenates. The settings on record: competition with labelled [His1,Nle27]hGH-RH(1-32)NH2. The protocol: GH-RH Binding Assay. A sensitive radioreceptor binding assay was developed to determine the binding characteristics of the antagonists of GH-RH (G. Halmos, A. V. Schally et al., Receptor 3, 87-97, 1993), hereby incorporated by reference. The assay is based on binding of labelled [His^1,Nle^27 ]hGH-RH(1-32)NH2 to rat anterior pituitary membrane homogenates. Iodinated derivatives of [His^1,Nle^27 ]hGH-RH(1-32)NH2 are prepared by the chloramine-T method (F. C. Greenwood et al., Biochemistry 89:114-123, 1963), hereby incorporated by reference. Pituitaries from male Sprague-Dawley rats (250-300 g) are used to prepare crude membranes. For saturation binding analyses, membrane homogenates are incubated with at least 6 concentrations of [His^1,^25 I-Tyr^10,Nle^27 ]hGH-RH(1-32)NH2, ranging from 0.005 to 0.35 nM in the presence or absence of excess unlabelled peptide (1 μM). The pellet is counted for radioactivity in a y-counter. The affinities of the antagonist peptides tested to rat pituitary GH-RH receptors are determined in competitive binding experiments. The final binding affinities are estimated by Ki (dissociation constant of the inhibitor-receptor complex) and are determined by the Ligand PC computer program of Munson and Rodbard as modified by McPherson. Relative affinities compared to [Ac-Tyr^1,D-Arg^2 ]hGH-RH(1-29)NH2, the Standard antagonist, are calculated as the ratio of Ki of the tested GH-RH antagonist to the Ki of the Standard antagonist.
In the case of `CCCC[C@H](NC(=O)[C@@H](NC(=O)[C@H](CC(=O)O)NC(=O)[C@H](CCC(N)=O)NC(=O)[C@H](CC(C)C)NC(=O)[C@H](CC(C)C)NC(=O)[C@H](CCCCN)NC(=O)[C@H](CCCNC(=N)N)NC(=O)[C@H](C)NC(=O)[C@H](CO)NC(=O)[C@H](CC(C)C)NC(=O)[C@H](CCC(N)=O)NC(=O)[C@H](CC)NC(=O)[C@H](CC(C)C)NC(=O)[C@@H](NC(=O)[C@H](CCCCN)NC(=O)[C@H](CCCNC(=N)N)NC(=O)[C@H](Cc1ccc(O)cc1)NC(=O)[C@H](CO)NC(=O)[C@H](CC(N)=O)NC(=O)[C@@H](NC(=O)[C@H](Cc1ccc(Cl)cc1)NC(=O)[C@@H](NC(=O)[C@H](C)NC(=O)[C@H](CC(=O)O)NC(=O)[C@@H](CCCNC(=N)N)NC(=O)[C@H](CCC(=O)O)NC(=O)CI)[C@@H](C)CC)[C@@H](C)O)C(C)C)[C@@H](C)CC)C(=O)N[C@@H](CO)C(=O)N[C@@H](CCCNC(=N)N)C(N)=O` [Peptide 8] (X2-E[dR]DAI[Phe(4-Cl)]TNSYRKVL[Abu]QLSARKLLQDI[Nle]SR-NH2), the Ki (as a rule, the equilibrium dissociation constant of an inhibitor or competing ligand from its target) worked out at 0.91 ± 0.01 nM.
`CCCC[C@H](NC(=O)[C@@H](NC(=O)[C@H](CC(=O)O)NC(=O)[C@H](CCC(N)=O)NC(=O)[C@H](CC(C)C)NC(=O)[C@H](CC(C)C)NC(=O)[C@H](CCCCN)NC(=O)[C@H](CCCNC(=N)N)NC(=O)[C@H](C)NC(=O)[C@H](CO)NC(=O)[C@H](CC(C)C)NC(=O)[C@H](CCC(N)=O)NC(=O)[C@H](CC)NC(=O)[C@H](CC(C)C)NC(=O)[C@@H](NC(=O)[C@H](CCCCN)NC(=O)[C@H](CCCNC(=N)N)NC(=O)[C@H](Cc1ccc(O)cc1)NC(=O)[C@H](CO)NC(=O)[C@H](CC(N)=O)NC(=O)[C@@H](NC(=O)[C@H](Cc1ccc(Cl)cc1)NC(=O)[C@@H](NC(=O)[C@H](C)NC(=O)[C@H](CC(=O)O)NC(=O)[C@@H](CCCNC(=N)N)NC(=O)[C@H](CCC(=O)O)NC(=O)Cc1cccc2ccccc12)[C@@H](C)CC)[C@@H](C)O)C(C)C)[C@@H](C)CC)C(=O)N[C@@H](CO)C(=O)N[C@@H](CCCNC(=N)N)C(N)=O` [Peptide 9] ({Acetyl(1-naphthyl)}-E[dR]DAI[Phe(4-Cl)]TNSYRKVL[Abu]QLSARKLLQDI[Nle]SR-NH2) showed a Ki of 0.87 ± 0.1 nM.
The same measure for `CCCC[C@H](NC(=O)[C@@H](NC(=O)[C@H](CC(=O)O)NC(=O)[C@H](CCC(N)=O)NC(=O)[C@H](CC(C)C)NC(=O)[C@H](CC(C)C)NC(=O)[C@H](CCCCN)NC(=O)[C@H](CCCNC(=N)N)NC(=O)[C@H](C)NC(=O)[C@H](CO)NC(=O)[C@H](CC(C)C)NC(=O)[C@H](CCC(N)=O)NC(=O)[C@H](CC)NC(=O)[C@H](CC(C)C)NC(=O)[C@@H](NC(=O)[C@H](CCCCN)NC(=O)[C@H](CCCNC(=N)N)NC(=O)[C@H](Cc1ccc(O)cc1)NC(=O)[C@H](CO)NC(=O)[C@H](CC(N)=O)NC(=O)[C@@H](NC(=O)[C@@H]1Cc2c([nH]c3ccccc23)CN1C(=O)[C@@H](NC(=O)[C@H](C)NC(=O)[C@H](CC(=O)O)NC(=O)[C@@H](CCCNC(=N)N)NC(=O)CCCC(=O)O)[C@@H](C)CC)[C@@H](C)O)C(C)C)[C@@H](C)CC)C(=O)N[C@@H](CO)C(=O)N[C@@H](CCCNC(=N)N)C(N)=O` [Peptide 12, [Glt^1,D-Arg^2,Tpi^6,Abu^15,Nle^27]hGH-RH(1-29)NH2] (Glutaryl-[dR]DAI[Tpi]TNSYRKVL[Abu]QLSARKLLQDI[Nle]SR-NH2): 0.3 ± 0.15 nM.
The same measure for `CCCC[C@H](NC(=O)[C@@H](NC(=O)[C@H](CC(=O)O)NC(=O)[C@H](CCC(N)=O)NC(=O)[C@H](CC(C)C)NC(=O)[C@H](CC(C)C)NC(=O)[C@H](CCCCN)NC(=O)[C@H](CCCNC(=N)N)NC(=O)[C@H](C)NC(=O)[C@H](CO)NC(=O)[C@H](CC(C)C)NC(=O)[C@H](CCC(N)=O)NC(=O)[C@H](CC)NC(=O)[C@H](CC(C)C)NC(=O)[C@@H](NC(=O)[C@H](CCCCN)NC(=O)[C@H](CCCNC(=N)N)NC(=O)[C@H](Cc1ccc(O)cc1)NC(=O)[C@H](CO)NC(=O)C(C)(C)NC(=O)[C@@H](NC(=O)[C@H](Cc1ccccc1)NC(=O)[C@@H](NC(=O)[C@H](C)NC(=O)[C@H](CC(=O)O)NC(=O)[C@@H](CCCNC(=N)N)NC(=O)[C@H](Cc1ccc(O)cc1)NC(=O)C(C)C)[C@@H](C)CC)[C@@H](C)O)C(C)C)[C@@H](C)CC)C(=O)N[C@@H](CO)C(=O)N[C@@H](CCCNC(=N)N)C(N)=O` [Peptide 13, [Ibu^0,D-Arg^2,Aib^8,Abu^15,Nle^27]hGH-RH(1-29)NH2] (Isobutyryl-Y[dR]DAIFT[Aib]SYRKVL[Abu]QLSARKLLQDI[Nle]SR-NH2): 0.78 ± 0.06 nM; for `CCCC[C@H](NC(=O)[C@@H](NC(=O)[C@H](CC(=O)O)NC(=O)[C@H](CCC(N)=O)NC(=O)[C@H](CC(C)C)NC(=O)[C@H](CC(C)C)NC(=O)[C@H](CCCCN)NC(=O)[C@H](CCCNC(=N)N)NC(=O)[C@H](C)NC(=O)[C@H](CO)NC(=O)[C@H](CC(C)C)NC(=O)[C@H](CCC(N)=O)NC(=O)[C@H](CC)NC(=O)[C@H](CC(C)C)NC(=O)[C@@H](NC(=O)[C@H](C)NC(=O)[C@H](CCCNC(=N)N)NC(=O)[C@H](Cc1ccc(O)cc1)NC(=O)[C@H](CO)NC(=O)[C@H](CC(N)=O)NC(=O)[C@@H](NC(=O)[C@H](Cc1ccc(Cl)cc1)NC(=O)[C@@H](NC(=O)[C@H](C)NC(=O)[C@H](CC(=O)O)NC(=O)[C@@H](CCCNC(=N)N)NC(=O)[C@H](Cc1ccc(O)cc1)NC(=O)C(C)C)[C@@H](C)CC)[C@@H](C)O)C(C)C)[C@@H](C)CC)C(=O)N[C@@H](CO)C(=O)N[C@@H](CCCNC(=N)N)C(N)=O` [Peptide 15, [Ibu^0,D-Arg^2,Phe(pCl)^6,Ala^12,Abu^15,Nle^27]hGH-RH(1-29)NH2] (Isobutyryl-Y[dR]DAI[Phe(4-Cl)]TNSYRAVL[Abu]QLSARKLLQDI[Nle]SR-NH2): 0.73 ± 0.05 nM; for `CCCC[C@H](NC(=O)[C@@H](NC(=O)[C@H](CC(=O)O)NC(=O)[C@H](CCC(N)=O)NC(=O)[C@H](CC(C)C)NC(=O)[C@H](CC(C)C)NC(=O)[C@H](CCCCN)NC(=O)[C@H](CCCNC(=N)N)NC(=O)[C@H](C)NC(=O)[C@H](CO)NC(=O)[C@H](CC(C)C)NC(=O)[C@H](CCC(N)=O)NC(=O)[C@H](CC)NC(=O)[C@H](CC(C)C)NC(=O)[C@@H](NC(=O)[C@H](CCCCN)NC(=O)[C@H](CCCNC(=N)N)NC(=O)[C@H](Cc1ccc(O)cc1)NC(=O)[C@H](CO)NC(=O)[C@H](CC(N)=O)NC(=O)[C@@H](NC(=O)[C@H](Cc1ccc(Cl)cc1)NC(=O)[C@@H](NC(=O)[C@H](C)NC(=O)[C@H](CC(=O)O)NC(=O)[C@@H](CCCNC(=N)N)NC(=O)[C@H](Cc1ccc(O)cc1)NC(=O)C(C)C)[C@@H](C)CC)[C@@H](C)O)C(C)C)[C@@H](C)CC)C(=O)N[C@@H](CO)C(=O)NCCCCNC(=N)N` [Peptide 19, Ibu^0,D-Arg^2, Phe(pCl)^6,Abu^15,Nle^27]hGH-RH(1-28)Agm] (Isobutyryl-Y[dR]DAI[Phe(4-Cl)]TNSYRKVL[Abu]QLSARKLLQDI[Nle]S-Agmatine): 0.12 ± 0.04 nM.
